Reference: patent publication US20260007609A1, “METHOD FOR PRODUCING EXTRACELLULAR VESICLES CONTAINING BIOACTIVE SUBSTANCE” (The University of Tokyo, priority 2022, published 2026)
Entries after “also recorded” stand apart in the source; their conditions may differ.

What was measured:
Assay type in all cases: cell-based
[1] = tested on: human mesenchymal stem cells; assay: Immunoblotting of extracellular vesicle fraction from culture supernatant of treated human mesenchymal stem cells; conditions: 40 μM, 24 hours, compared to DMSO
Method: (§1) CID1067700 (#SML0545-5MG) was purchased from Sigma-Aldrich, was solubilized at 40 mM in DMSO, and was added to cells to a final concentration of 40 μM, followed by performing culture for 24 hours. GW4869 (#13127) was purchased from Cayman Chemical, was solubilized at 5 mM in DMSO, and was added to cells to a final concentration of 1.25 μM, followed by performing culture for 24 hours. TAS116 (#HY-15785) was purchased from MedChemExpress, was solubilized at 1 mM in DMSO and was added to cells to a final concentration of 0.5 μM, followed by performing culture for 48 hours.
(§2) Human mesenchymal stem cells were plated on three 10-cm cell culture dishes at a density of 5,000 to 6,000 cells/cm^2. Six days after initiation of the culture, per dish, the medium was replaced with the EV Production Basal Medium (FUJIFILM-Wako, #053-09451 and #298-84001), to which 10 mL of supplements had been added (wherein a new medium to be replaced comprised an additive compound, as appropriate). After 24 hours of culture under conditions of 5% CO2 and 37° C., the medium was recovered, and was then centrifuged at 2,000×g for 30 minutes at 4° C. to remove the cell debris. Using a Millipore Amicon Ultra 30,000 MWCO filter (Pall, #MAP030C37), the resultant was centrifuged at 4,000×g for 60 minutes at 4° C., so that it was condensed to 1 ml. To the condensed culture supernatant, 500 μL of Total Exosome Isolation Reagent (Invitrogen, #4478359) was added, and the obtained mixture was then incubated overnight, while mixing it by inverting. The solution that had been mixed overnight was centrifuged at 10,000×g for at least 1 hour, and the extracellular vesicles were harvested as a precipitate, which was then resuspended in 30 μL of PBS. The obtained extracellular vesicles were preserved at 4° C. and were then used in experiments within 1 week.
Immunoblotting was performed according to the previous report (Yin et al., Neuron 70, 310-325, 2011). […] The bands were detected using an ImageQuant LAS 4000 mini system (GE Healthcare Life Sciences, USA) and were then quantified using ImageJ software. […]

[2] = tested on: human mesenchymal stem cells; assay: Nanoparticle tracking analysis (NTA) of culture supernatant of human mesenchymal stem cells
Method: as §2
The above-described culture supernatant was diluted with PBS, and was then analyzed using Zetaview Nanoparticle Tracking Analysis Instrument (Particle Metrix, Germany). The collected data were analyzed and diagrammatized using Prism software (Graphpad, ver. 7 and 9.3.1).
First, human mesenchymal stem cells were cultured for 24 hours in a basic medium for EV production (FUJIFILM-Wako) supplemented with supplements in the presence or absence of CID1067700, and NTA was performed using the culture supernatant after removing impurities by centrifugation (FIG. 3). Using ZetaView system capable of counting extracellular vesicles with a large particle diameter such as approximately 1 μm, the measurement was performed at the “highest” mode. […]

[3] = tested on: human mesenchymal stem cells; assay: Transmission electron microscopy of hMSC-EV pellets; conditions: TEM histogram of particle sizes larger than 100 nm, vs DMSO
Method: Observation by transmission electron microscopy (TEM) was performed according to previously reported standard methods (Nonaka et al., Cell 95, 829-837, 1998; Takei et al., The Journal of cell biology 131, 1789-1800, 1995). A precipitate of extracellular vesicles was fixed in Half Kalnovsky fixative at 37° C. for 10 min and then at 4° C. overnight, followed by post-fixation with 1% OsO4 (in 0.1 M cacodylate buffer (pH 7.4)) on ice for 1.5 hours. Thereafter, the sample was subjected to electron staining with 1% uranyl acetate for 1 hour, and was then dehydrated using a graded ethanol series. Finally, the dehydrated extracellular vesicle sample was embedded in Quetol-812 (Nisshin EM), was then cut into ultrathin sections, was then electron-stained with uranyl acetate and lead citrate, and was then observed using a JEM2000 microscope at 100 keV, or using a JEM-1400Flash microscope at 80 keV. Next, the extracellular vesicle pellets were observed using TEM (FIG. 4). In addition to conventionally known small (approximately 100 nm in diameter) exosome-like particles, particles with a low electron density (bright) and a diameter of larger than 800 nm were contained in the extracellular vesicle fraction derived from human mesenchymal stem cells treated with CID1067700, and the particles tended to be surrounded with a lipid double layer (FIGS. 4A and 4B).

[4] = tested on: ShhN-EGFP transduced NIH3T3 fibroblasts; assay: In vitro extracellular vesicle release imaging (Shh-EV tracking)
Method: as §1
In order to monitor the Brownian motion of Shh extracellular particles, NIH3T3 cells were plated at 1×10^4 cells/well onto an 8-well LabTek II Chamber #1.5 German Coverglass System pre-coated with poly-L-lysine. On the 3rd day of the culture, an adenoviral Shh-N-EGFP expression vector was introduced into the NIH3T3 cells. […] Twenty-four hours after the medium replacement, time-lapse imaging was performed using a spinning disc microscope (Yokogawa/ZEISS) according to the previous report (Tanaka et al., Neuron 90, 1215-1229, 2016) under conditions of 5% CO2 and 37° C. at intervals of 5 seconds. Shh extracellular vesicles with Brownian motion were identified using Imaris 8 software (Bitplane) and were then quantified.
Extracellular vesicles with a large particle diameter, which contain Shh, were visualized by live cell imaging in ShhN-EGFP transduced NIH3T3 fibroblasts treated with CID1067700 (FIG. 5).
These particles were automatically tracked and were identified as extracellular vesicles released from cells under drug (CID1067700, GW4869, or TSA116) addition conditions (FIGS. 5B to 5I). […] However, this increase in the released amount of Shh-EVs due to the CID1067700 treatment disappeared, when the cells were treated with […] TSA116 (Hsp90 inhibitor) for 48 hours or with 1.25 μM GW4869 (nSMase2 inhibitor) for 24 hours (FIG. 5J).

NIH3T3 cells [5] = assay: Immunostaining of ceramide
Method: (§3) As for light microscopic observation, cells were plated on a 35-mm glass-bottomed dish (Matsunami, Japan, #D11130H) that had been pre-coated with poly-L-lysine (1:1,000, Sigma, #P4707) for 1 hour. Immunofluorescence labelling was performed using the antibodies described above. Briefly, cells were incubated with the primary antibody overnight at 4° C., and with the secondary antibody for 1 hour, followed by washing with PBS three times for 5 minutes for each washing. Thereafter, as mentioned above, using a spinning disc confocal microscope (Yokogawa/ZEISS) or an LSM780 confocal microscope equipped with Airyscan, the cells were observed. Three dimensional reconstruction of the cells was performed using Imaris 8 software (Bitplane).
In order to investigate whether nSMase2 activity is influenced by the CID1067700 treatment, NIH3T3 cells were treated with CID1067700 and/or GW4869, and immunostaining of ceramide was then performed (FIG. 6).

NIH3T3 cells [6] = assay: Fluorescence microscopy of extracellular structures containing Shh and Hsp90; conditions: 40 μM, 24 hours, vs DMSO
Method: as §3
The morphological characteristics of Shh-EVs mediated by Hsp90 secreted from CID1067700-treated cells were observed. Both Shh-tagRFP and Hsp90-EGFP were transduced into NIH3T3 cells, and the effects obtained by treating the cells with CID1067700 for 24 hours were compared. The cells were fixed the cells and were then photographed by z-stacks, and a three-dimensional model was then constructed. […] Since these structures were observed after the medium was removed and the cells were fixed, they are thought to interact with the cells as intermediate structures in the process of extracellular vesicle release. […]

[7] = culture supernatant, 24 hours treatment, n=4

## CC1(C)Cc2c(sc(NC(=S)NC(=O)c3ccccc3)c2C(=O)O)CO1 [CID1067700, 2-(benzoylcarbamothioylamino)-5,5-dimethyl-4,7-dihydrothieno[2,3-c]pyran-3-carboxylic acid]
[1]
  amount of Shh in the extracellular vesicles released from the cells: significantly elevated
  amount of the general exosome marker Hsp90 in extracellular vesicles: largely unaltered
  amount of the general exosome marker TSG101 in extracellular vesicles: largely unaltered
[2]; [7]
  extracellular vesicles with a diameter of 100 to 800 nm per ml: 3.2±1.9×10^8 particles/ml
  extracellular vesicles with a diameter of larger than 800 nm: 6.6±2.2×10^7 particles/ml
[2]; result in words, vs DMSO alone
  number of extracellular vesicles with a particle diameter of greater than 800 nm: significantly increased
[3]
  number of large-size extracellular vesicles: significantly increased
[4]; 24 hours of treatment, compared to control (DMSO treatment)
  number of Shh-EVs: significantly increased
NIH3T3 cells [5]; 24 hours of treatment (40 μM), compared to DMSO alone
  expression level of ceramide in the cytoplasm: significantly increased
NIH3T3 cells [6]
  cells with extracellular structures containing Hsp90 and Shh: significantly increased

## CCc1cc(C(N)=O)ccc1-n1nc(C(C)C)c2c(-n3cnc(-c4cnn(C)c4)c3)ccnc21 [TSA116]
[4]; co-treatment with 5 μM TSA116 for 48 hours
  increase in the released amount of Shh-EVs due to the CID1067700 treatment: disappeared

## O=C(/C=C/c1ccc(/C=C/C(=O)Nc2ccc(C3=NCCN3)cc2)cc1)Nc1ccc(C2=NCCN2)cc1 [GW4869]
[4]; co-treatment with 1.25 μM GW4869 for 24 hours
  increase in the released amount of Shh-EVs due to the CID1067700 treatment: disappeared
NIH3T3 cells [5]; simultaneous treatment with GW4869 (2.5 μM), 24 hours
  increase in the expression level of ceramide caused by CID1067700: significantly suppressed; also recorded: offset
